Earlier results, collected in patent US20170327462A1, “(Z)-3,4,5-TRIMETHOXYSTYRYLBENZENESULFONAMIDES AS POTENTIAL ANTICANCER AGENTS” (COUNCIL OF SCIENTIFIC & INDUSTRIAL RESEARCH, priority 2014, published 2017).

Test system: tubulin
Conditions: binding at colchicine binding site; J. Med. Chem. 2008, 51, 6211; cited from earlier work

COc1cc(/C=C\c2ccc(OC)c(N)c2)cc(OC)c1 [(Z)-5-(3,5-dimethoxystyryl)-2-methoxyaniline]
inhibition of tubulin polymerization relative to CA-4: five times stronger than CA-4
